Results published in PubChem BioAssay AID330 (DTP/NCI, 2004).
“And” between values parts separate entries of the source, which are not always exact repeats. Identical values can stand only once. Inconclusive results and toxic doses are left out. Numbered stars: 1 amine (or outer) side, 2 acyl side, 3 side chain; on linkers, the order of the positions; unused ones are H or OH. Bridge positions count the residues as written; N and C are the ends. Square brackets hold non-standard residues; d marks the D form. Peptide text beside a SMILES is read from it. I, II: the chains in the order shown. Actinocin(9to1) = Cc1c2oc3c(C)ccc(C(=O)[*:1])c3nc-2c(C(=O)[*:2])c(N)c1=O; aThr = C[C@H](O)[C@H](N)C(=O)O; NMeV = CN[C@H](C(=O)O)C(C)C; Sar = CNCC(=O)O

System: P388 leukemia ip, CD2F1 mice, survival T/C
Experiment: NCI In Vivo Anticancer Drug Screen. Data for tumor model P388 Leukemia (intraperitoneal) in CD2F1 (CDF1) mice
Conditions: endpoint: median survival time, higher = longer survival
Method in brief: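 Mice carrying the transplanted tumor received test compound or vehicle. Survival was recorded in each group, and the value is the treated-group measurement divided by that of the vehicle-treated control group.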

[1] = dose: 50.0 mg/kg/injection, schedule: Q01DX005 (ip), vehicle: saline with Tween-80
[2] = dose: 100.0 mg/kg/injection, schedule: Q01DX005 (ip), vehicle: saline with Tween-80
[3] = dose: 200.0 mg/kg/injection, schedule: Q01DX005 (ip), vehicle: saline with Tween-80

Cc1c2oc3c(C)ccc(C(=O)N[C@@H]4C(=O)N[C@H](C(C)C)C(=O)N5CCC[C@H]5C(=O)N(C)CC(=O)N(C)[C@@H](C(C)C)C(=O)O[C@H]4C)c3nc-2c(C(=O)N[C@@H]2C(=O)N[C@H](C(C)C)C(=O)N3CCC[C@H]3C(=O)N(C)CC(=O)N(C)[C@@H](C(C)C)C(=O)O[C@H]2C)c(N)c1=O (I: [aThr][dV]P[Sar][NMeV] / II: [aThr][dV]P[Sar][NMeV]; ester I:1-I:C, II:1-II:C; linker I:N-II:N via Actinocin(9to1))
T/C (dose: 0.05 mg/kg/injection, schedule: Q01DX005 (ip), vehicle: saline + alcohol): 236 % of control | T/C (dose: 0.08 mg/kg/injection, schedule: Q04DX003 (ip), vehicle: saline + alcohol): 165 % of control | T/C (dose: 0.09 mg/kg/injection, schedule: Q01DX009 (ip), vehicle: water): 79 % of control | T/C (dose: 0.1 mg/kg/injection, schedule: Q01DX001 (ip), vehicle: water): 181 % of control | T/C (dose: 0.11 mg/kg/injection, schedule: Q04DX003 (ip), vehicle: saline + alcohol): 151 % of control | T/C (dose: 0.13 mg/kg/injection, schedule: Q04DX002 (ip), vehicle: saline + alcohol): 156 % of control and 180 % of control and 198 % of control | T/C (dose: 0.13 mg/kg/injection, schedule: Q04DX003 (ip), vehicle: saline + alcohol): 223 % of control | T/C (dose: 0.15 mg/kg/injection, schedule: Q04DX003 (ip), vehicle: saline): 169 % of control | T/C (dose: 0.16 mg/kg/injection, schedule: Q01DX009 (ip), vehicle: water): 65 % of control | T/C (dose: 0.18 mg/kg/injection, schedule: Q04DX003 (ip), vehicle: saline + alcohol): 163 % of control | T/C (dose: 0.21 mg/kg/injection, schedule: Q04DX002 (ip), vehicle: saline + alcohol): 186 % of control | T/C (dose: 0.22 mg/kg/injection, schedule: Q04DX002 (ip), vehicle: saline + alcohol): 162 % of control and 215 % of control | T/C (dose: 0.22 mg/kg/injection, schedule: Q04DX003 (ip), vehicle: saline + alcohol): 247 % of control | T/C (dose: 0.3 mg/kg/injection, schedule: Q01DX001 (ip), vehicle: saline): 153 % of control | T/C (dose: 0.3 mg/kg/injection, schedule: Q04DX003 (ip), vehicle: saline + alcohol): 182 % of control | T/C (dose: 0.3 mg/kg/injection, schedule: Q04DX003 (ip), vehicle: saline): 175 % of control | T/C (dose: 0.36 mg/kg/injection, schedule: Q04DX002 (ip), vehicle: saline + alcohol): 118 % of control and 176 % of control and 212 % of control | T/C (dose: 0.36 mg/kg/injection, schedule: Q04DX003 (ip), vehicle: saline + alcohol): 99 % of control | T/C (dose: 0.45 mg/kg/injection, schedule: Q01DX001 (ip), vehicle: saline): 164 % of control | T/C (dose: 0.5 mg/kg/injection, schedule: Q04DX003 (ip), vehicle: saline + alcohol): 220 % of control | T/C (dose: 0.6 mg/kg/injection, schedule: Q01DX001 (ip), vehicle: saline): 169 % of control | T/C (dose: 0.6 mg/kg/injection, schedule: Q04DX002 (ip), vehicle: saline + alcohol): 101 % of control and 207 % of control and 254 % of control | T/C (dose: 0.6 mg/kg/injection, schedule: Q04DX003 (ip), vehicle: saline): 86 % of control | T/C (dose: 0.8 mg/kg/injection, schedule: Q01DX001 (ip), vehicle: water): 183 % of control | T/C (dose: 1.0 mg/kg/injection, schedule: Q04DX002 (ip), vehicle: saline + alcohol): 260 % of control and 274 % of control | T/C (dose: 1.2 mg/kg/injection, schedule: Q01DX001 (ip), vehicle: water): 55 % of control | T/C (dose: 3.0 micrograms/kg/injection, schedule: Q01DX009 (ip), vehicle: water): 150 % of control and 160 % of control and 175 % of control | T/C (dose: 6.0 micrograms/kg/injection, schedule: Q01DX009 (ip), vehicle: water): 164 % of control and 170 % of control and 188 % of control | T/C (dose: 6.25 micrograms/kg/injection, schedule: Q01DX005 (ip), vehicle: saline + alcohol): 207 % of control | T/C (dose: 6.25 micrograms/kg/injection, schedule: Q01DX009 (ip), vehicle: saline): 150 % of control | T/C (dose: 6.5 micrograms/kg/injection, schedule: Q01DX009 (ip), vehicle: saline + alcohol): 155 % of control | T/C (dose: 10.8 micrograms/kg/injection, schedule: Q01DX009 (ip), vehicle: saline + alcohol): 160 % of control | T/C (dose: 12.5 micrograms/kg/injection, schedule: Q01DX005 (ip), vehicle: saline + alcohol): 207 % of control | T/C (dose: 18.0 micrograms/kg/injection, schedule: Q01DX009 (ip), vehicle: saline + alcohol): 163 % of control | T/C (dose: 25.0 micrograms/kg/injection, schedule: Q01DX005 (ip), vehicle: saline + alcohol): 245 % of control | T/C (dose: 30.0 micrograms/kg/injection, schedule: Q01DX009 (ip), vehicle: saline + alcohol): 184 % of control | T/C (dose: 50.0 micrograms/kg/injection, schedule: Q01DX005 (ip), vehicle: saline + alcohol): 176 % of control and 267 % of control | T/C (dose: 64.8 micrograms/kg/injection, schedule: Q04DX003 (ip), vehicle: saline + alcohol): 156 % of control | T/C (dose: 77.8 micrograms/kg/injection, schedule: Q04DX003 (ip), vehicle: saline + alcohol): 174 % of control | T/C (dose: 83.3 micrograms/kg/injection, schedule: Q01DX009 (ip), vehicle: saline + alcohol): 98 % of control | T/C (dose: 100.0 micrograms/kg/injection, schedule: Q01DX005 (ip), vehicle: saline + alcohol): 178 % of control | T/C (dose: 130.0 micrograms/kg/injection, schedule: Q04DX003 (ip), vehicle: saline + alcohol): 175 % of control | T/C (dose: 139.0 micrograms/kg/injection, schedule: Q01DX009 (ip), vehicle: saline + alcohol): 96 % of control | T/C (dose: 180.0 micrograms/kg/injection, schedule: Q04DX003 (ip), vehicle: saline + alcohol): 190 % of control | T/C (dose: 216.0 micrograms/kg/injection, schedule: Q04DX003 (ip), vehicle: saline + alcohol): 192 % of control | T/C (dose: 300.0 micrograms/kg/injection, schedule: Q04DX003 (ip), vehicle: saline + alcohol): 162 % of control and 175 % of control | T/C (dose: 360.0 micrograms/kg/injection, schedule: Q04DX003 (ip), vehicle: saline + alcohol): 197 % of control | T/C (dose: 500.0 micrograms/kg/injection, schedule: Q04DX003 (ip), vehicle: saline + alcohol): 113 % of control and 219 % of control | T/C (dose: 600.0 micrograms/kg/injection, schedule: Q04DX003 (ip), vehicle: saline + alcohol): 101 % of control

OCCN(CCO)c1ncnc2nc[nH]c12
T/C [1]: 88 % of control | T/C [2]: 96 % of control | T/C [3]: 98 % of control

CC1C(c2ccccc2)NC(c2ccccc2)CC1(N)C#N (stereo not drawn)
T/C (dose: 50.0 mg/kg/injection, schedule: Q01DX005 (ip), vehicle: Klucel (hydroxypropylcellulose) (HPC)): 95 % of control | T/C (dose: 100.0 mg/kg/injection, schedule: Q01DX005 (ip), vehicle: Klucel (hydroxypropylcellulose) (HPC)): 95 % of control | T/C (dose: 200.0 mg/kg/injection, schedule: Q01DX005 (ip), vehicle: Klucel (hydroxypropylcellulose) (HPC)): 93 % of control

O=c1[nH]c(=O)n(C2CC(O)C(CO)O2)cc1N1CCOCC1 (stereo not drawn)
T/C (dose: 50.0 mg/kg/injection, schedule: Q01DX005 (ip), vehicle: saline): 108 % of control | T/C (dose: 100.0 mg/kg/injection, schedule: Q01DX005 (ip), vehicle: saline): 101 % of control | T/C (dose: 200.0 mg/kg/injection, schedule: Q01DX005 (ip), vehicle: saline): 108 % of control

CC(CN1CCCCC1)NC(=O)c1scnc1-c1ccccc1 (stereo not drawn)
T/C (dose: 60.0 mg/kg/injection, schedule: Q01DX005 (ip), vehicle: saline with Tween-80): 116 % of control | T/C (dose: 120.0 mg/kg/injection, schedule: Q01DX005 (ip), vehicle: saline with Tween-80): 98 % of control

COc1cc2c(cc1OC)[C@H](c1cc(Br)c(O)c(OC)c1)[C@H]1C(=O)OCC1C2 (stereo partly drawn)
T/C (dose: 12.5 mg/kg/injection, schedule: Q01DX005 (ip), vehicle: saline with Tween-80): 87 % of control | T/C (dose: 25.0 mg/kg/injection, schedule: Q01DX005 (ip), vehicle: saline with Tween-80): 92 % of control | T/C [1]: 92 % of control | T/C [2]: 88 % of control | T/C [3]: 89 % of control

FC(F)(F)C1=NNC(c2ccc3ccccc3c2)=NN1
T/C (dose: 50.0 mg/kg/injection, schedule: Q01DX009 (ip), vehicle: Klucel (hydroxypropylcellulose) (HPC)): 95 % of control | T/C (dose: 100.0 mg/kg/injection, schedule: Q01DX009 (ip), vehicle: Klucel (hydroxypropylcellulose) (HPC)): 90 % of control | T/C (dose: 200.0 mg/kg/injection, schedule: Q01DX009 (ip), vehicle: Klucel (hydroxypropylcellulose) (HPC)): 92 % of control

c1ccc(N2CCN(c3ccccc3)C2=C2N(c3ccccc3)CCN2c2ccccc2)cc1
T/C (dose: 3.0 mg/kg/injection, schedule: Q01DX005 (ip), vehicle: saline): 105 % of control | T/C (dose: 6.0 mg/kg/injection, schedule: Q01DX005 (ip), vehicle: saline): 107 % of control | T/C (dose: 12.0 mg/kg/injection, schedule: Q01DX005 (ip), vehicle: saline): 105 % of control | T/C (dose: 12.5 mg/kg/injection, schedule: Q01DX005 (ip), vehicle: saline): 114 % of control | T/C (dose: 25.0 mg/kg/injection, schedule: Q01DX005 (ip), vehicle: saline): 99 % of control and 118 % of control
